# Publication PMC6251916, “CKD-506, a novel HDAC6-selective inhibitor, improves renal outcomes and survival in a mouse model of systemic lupus erythematosus” (Scientific Reports, 2018)
# Columns and labels:
# NZB/W F1 female mice [1] = experiment: Murine SLE model: flow cytometry of splenocytes; format: in vivo, mouse
# Excerpt: Single cell suspensions were obtained from the spleens of NZB/W F1 mice at autopsy (at 43–44 weeks of age). The splenocytes were stained with PerCP-Cy5.5-conjugated anti-mouse CD3e (PerCP-cy5.5-CD3e, eBioscience, San Diego, CA, USA), fluorescein isothiocyanate (FITC)-conjugated anti-mouse CD4 (FITC-CD4, BD Biosciences, San Jose, CA, USA), PE-cyanine7-conjugated anti-mouse CD8a (eBioscience), allo-phycocyanin (APC)-conjugated anti-mouse CD25 (BD Biosciences) and PE-conjugated anti-mouse CD138 (BD Biosciences).
# T cell profile was analyzed as described previously; briefly, we examined proportions of Th1 cells (CD4^+CD25^+T-bet^+), Th2 cells (CD4^+CD25^+GATA-3^+), Th17 cells (CD4^+CD25^+ROR-γt^+), and Treg cells (CD4^+CD25^+Foxp3^+). To analyze T helper subsets, the splenocytes were stained with antibodies to CD4 and CD25 (FITC-conjugated anti-mouse CD4 and APC-conjugated anti-mouse CD25, BD Biosciences). Cells were fixed and permeabilized prior to staining with T-bet, GATA-3, ROR-γt and Foxp3 antibodies (PE-, BD Biosciences).
# NZB/W F1 female mice [2] = experiment: Murine SLE model: survival, severe proteinuria, UP/C; format: in vivo, mouse; conditions: for Survival rate at the end of the study: 42-weeks of age; for incidence of severe proteinuria (urine protein >300 mg/dl): 42 weeks of age
# Experimental: Survival had been monitored until 42 weeks of age.
# During the experiments, urine protein levels had been measured every 2 weeks. Fresh urine was collected by performing abdominal massages. Urine protein was measured with the Coomassie Brilliant Blue method as described in our previous study. Urine creatinine was measured using a DRI-CHEM 3000 Colorimetric analyzer (Fujifilm, Tokyo, Japan) with the urine diluted in deionized water (1:100 dilution).
# [3] = system: THP1-Blue ISG human monocyte cell line; experiment: cGAMP induced IFN promoter activity reporter assay (IRF-inducible SEAP); format: cell-based; conditions: 3 μM; 10 μM cGAMP; 24hr; significant
# Excerpt: Supplementary Figure 2. A representative gating scheme of the T cell subset and CD138+ […]
# To analyze T helper subsets, splenocytes were stained with antibodies to CD4 and CD25 (FITC-conjugated anti-mouse CD4 and APC-conjugated anti-mouse CD25, BD Biosciences).
# Cells were fixed and permeabilized prior to staining with Foxp3 (Tube 007), ROR-γt (Tube 008), T-bet (Tube 009), and GATA-3 (Tube 010) antibodies (PE-, BD Biosciences).
# The splenocytes were stained with PerCP-Cy5.5-conjugated anti-mouse CD3e (PerCP-cy5.5-CD3e, eBioscience, San Diego, CA, USA), fluorescein isothiocyanate (FITC)-conjugated anti-mouse CD4 (FITC-CD4, BD Biosciences, San Jose, CA, USA), PE-cyanine7-conjugated anti-mouse CD8a (eBioscience), and APC-conjugated anti-mouse CD25 (Tube 011).
# Unstained control (no antibody, Tube 001), FITC control (FITC-conjugated anti-mouse CD4 only, Tube 002), APC control (APC-conjugated anti-mouse CD25 only, Tube 003), PE control (PE-conjugated anti-mouse CD138 (BD Bioscience) only, Tube 004), and PerCP-Cy5.5 CD3 control (PerCP-Cy5.5-conjugated anti-mouse CD3e only, Tube 005) were also used for gating. cGAMP induced IFN promoter activ ity
# Supplementary Figure 3. […]
# The SEAP activity in the culture supernatant was measured with Flexstation (Molecular Devices, USA) after incubation with Quanti-Blue solution (InvivoGen, USA) for 15 min. […]
# NZB/W F1 female mice [4] = experiment: Murine SLE model: cytokine levels in kidney extracts; format: in vivo, mouse; conditions: at autopsy, mean ± SD
# Experimental: The kidneys were weighed and then transferred into dPBS (Welgene) supplemented with anti-protease Complete TM cocktail (Boehringer) using 12.5 μl of dPBS per milligram of wet weight tissue. Samples were homogenized twice using an Automill TK-AM5 freeze-crushing cell homogenizer (W 280 mm × D 390 mm × H 290 mm, Tokken Inc., Chiba, Japan) at 1,400 rpm for 90 seconds and then centrifuged at 16,000 × g for 15 min at 4 °C. The supernatants were collected and total protein concentrations were determined in the kidney extracts using a bicinchoninic acid (BCA) protein assay kit™ (Pierce). Total protein concentrations of the kidney extracts were adjusted to 2 mg/dl and used for the analysis of IFN-γ, IL-10, IL-15, IL-17, IL-1β, IL-4, IL-6, IP-10, MCP-1, CCL4, RANTES, TNF-α and sCD40L with Milliplex® MAP Kits (Millipore).
# [5] = group D: CKD-506 10 mg/kg/day, n = 10
# [6] = group E: CKD-506 30 mg/kg/day, n = 14
substance,measurement,setting,value
CKD-506,fewer CD4−CD8− cells compared with group vehicle,"NZB/W F1 female mice [1]; group CKD10, spleen",19.1%
same,fewer CD138+ cells compared with group vehicle,"NZB/W F1 female mice [1]; group CKD10, spleen",21.2%
same,fewer CD4−CD8− cells compared with group vehicle,"NZB/W F1 female mice [1]; group CKD30, spleen",28.3%
same,fewer CD138+ cells compared with group vehicle,"NZB/W F1 female mice [1]; group CKD30, spleen",25.2%
same,CD4−CD8+ T cells in spleen vs vehicle,NZB/W F1 female mice [1]; group CKD50,significantly more
same,percentage of CD25+ cells in spleen vs vehicle,NZB/W F1 female mice [1]; group CKD50,significantly lower
same,T-bet expression by CD4+ cells vs vehicle,"NZB/W F1 female mice [1]; group CKD50, spleen",significantly lower
same,fewer CD4−CD8− cells compared with group vehicle,"NZB/W F1 female mice [1]; group CKD50, spleen",27.3%
same,fewer CD138+ cells compared with group vehicle,"NZB/W F1 female mice [1]; group CKD50, spleen",31.6%
same,Survival rate at the end of the study,NZB/W F1 female mice [2]; group CKD10: 10 mg/kg/day i.p.,73.3%
same,incidence of severe proteinuria (urine protein >300 mg/dl),NZB/W F1 female mice [2]; group CKD10: 10 mg/kg/day i.p.,13.3%
same,Survival rate at the end of the study,NZB/W F1 female mice [2]; group CKD30: 30 mg/kg/day i.p.,93.3%
same,incidence of severe proteinuria (urine protein >300 mg/dl),NZB/W F1 female mice [2]; group CKD30: 30 mg/kg/day i.p.,6.7%
same,Survival rate at the end of the study,NZB/W F1 female mice [2]; group CKD50: 50 mg/kg/day i.p.,93.3%
same,incidence of severe proteinuria (urine protein >300 mg/dl),NZB/W F1 female mice [2]; group CKD50: 50 mg/kg/day i.p.,0%
same,urine protein/urine creatinine (UP/C),"NZB/W F1 female mice [2]; group CKD50, 42 weeks, not significantly different from other groups",lowest UP/C mean value
same,cGAMP induced IFN promoter activity,[3],repressed
same,Kidney extract CCL2,NZB/W F1 female mice [4]; [5],61.30 ± 70.39 pg/mL
same,Kidney extract CCL4,NZB/W F1 female mice [4]; [5],12.77 ± 23.90 pg/mL
same,Kidney extract IFN-γ,NZB/W F1 female mice [4]; [5],17.46 ± 15.04 pg/mL
same,Kidney extract IL-1β,NZB/W F1 female mice [4]; [5],2.09 ± 2.68 pg/mL
same,Kidney extract IL-4,NZB/W F1 female mice [4]; [5],0.01 ± 0.02 pg/mL
same,Kidney extract IL-6,NZB/W F1 female mice [4]; [5],3.99 ± 2.72 pg/mL
same,Kidney extract IL-10,NZB/W F1 female mice [4]; [5],9.43 ± 4.36 pg/mL
same,Kidney extract IL-15,NZB/W F1 female mice [4]; [5],34.25 ± 21.24 pg/mL
same,Kidney extract IP-10,NZB/W F1 female mice [4]; [5],98.47 ± 44.61 pg/mL
same,Kidney extract RANTES,NZB/W F1 female mice [4]; [5],31.17 ± 24.93 pg/mL
same,Kidney extract TNF-α,NZB/W F1 female mice [4]; [5],Not detected
same,Kidney extract CCL2,NZB/W F1 female mice [4]; [6],21.90 ± 17.10 pg/mL
same,Kidney extract CCL4,NZB/W F1 female mice [4]; [6],1.70 ± 4.61 pg/mL
same,Kidney extract IFN-γ,NZB/W F1 female mice [4]; [6],13.12 ± 4.85 pg/mL
same,Kidney extract IL-1β,NZB/W F1 female mice [4]; [6],1.18 ± 2.19 pg/mL
same,Kidney extract IL-4,NZB/W F1 female mice [4]; [6],0.02 ± 0.05 pg/mL
same,Kidney extract IL-6,NZB/W F1 female mice [4]; [6],1.65 ± 0.82 pg/mL
same,Kidney extract IL-10,NZB/W F1 female mice [4]; [6],9.62 ± 2.42 pg/mL
same,Kidney extract IL-15,NZB/W F1 female mice [4]; [6],42.42 ± 16.89 pg/mL
same,Kidney extract IP-10,NZB/W F1 female mice [4]; [6],63.40 ± 21.06 pg/mL
same,Kidney extract RANTES,NZB/W F1 female mice [4]; [6],9.30 ± 7.86 pg/mL
same,Kidney extract TNF-α,NZB/W F1 female mice [4]; [6],Not detected
same,Kidney extract CCL2,"NZB/W F1 female mice [4]; group F: 50 mg/kg/day, n = 14",3.15 ± 6.10 pg/mL
same,Kidney extract CCL4,"NZB/W F1 female mice [4]; group F: 50 mg/kg/day, n = 14",Not detected*
same,Kidney extract IFN-γ,"NZB/W F1 female mice [4]; group F: 50 mg/kg/day, n = 14",6.77 ± 4.06 pg/mL
same,Kidney extract IL-1β,"NZB/W F1 female mice [4]; group F: 50 mg/kg/day, n = 14",0.26 ± 0.60 pg/mL
same,Kidney extract IL-4,"NZB/W F1 female mice [4]; group F: 50 mg/kg/day, n = 14",Not detected*
same,Kidney extract IL-6,"NZB/W F1 female mice [4]; group F: 50 mg/kg/day, n = 14",0.43 ± 0.45 pg/mL
same,Kidney extract IL-10,"NZB/W F1 female mice [4]; group F: 50 mg/kg/day, n = 14",7.60 ± 2.08 pg/mL
same,Kidney extract IL-15,"NZB/W F1 female mice [4]; group F: 50 mg/kg/day, n = 14",32.82 ± 11.63 pg/mL
same,Kidney extract IP-10,"NZB/W F1 female mice [4]; group F: 50 mg/kg/day, n = 14",43.90 ± 14.50 pg/mL
same,Kidney extract RANTES,"NZB/W F1 female mice [4]; group F: 50 mg/kg/day, n = 14",3.80 ± 2.17 pg/mL
same,Kidney extract TNF-α,"NZB/W F1 female mice [4]; group F: 50 mg/kg/day, n = 14",Not detected
